Experimental data published in patent US10609945B2, “Compositions comprising 2FL and LNnT to control food intake and growth in infants or young children” (NESTEC S.A., priority 2016, dated 2020).

Test: Relative intake (total food intake/average body weight) of IUGR rats
Type: in vivo
Settings: diet with 4.5 wt % HMO(s), vs IUGR rats control; for relative intake, period day 22-day 29: FIG. 4A/5A; for relative intake, period day 22-day 36: FIG. 4B/5B
Text: A wide group of pregnant female rats were bought from Charles River laboratories. Some of them were submitted to food restriction of 60% during the last 10 days of gestation. Immediately after birth (d=1), the born rat pups—subjects of the experiment—were split intoseveral groups: • Normal rats (reference): no IUGR (Intrauterine growth restriction) during their mothers' pregnancy (n=20). • IUGR rats (control): […] LNnT or 2FL+LNnT (in a weight ratio 2:1), see details below. All rat pups were fed from birth (d=1) up to 57 days (d=57) based on the following protocol: • day 1-day 6: all groups of rats were nursed by dam (mothers' milk only) • day 7-day 21: all rats were nursed by dam (mothers' milk only). […] To assess the efficiency of the feeding of these rats, especially tosee whether the feeding imply a healthy growth or not, several parameters were calculated, including: • the lean mass: it corresponds to the amount of weight in the body composition that is not fat. It was measured by magnetic resonance imaging. • the relative intake: it corresponds to the total food intake divided by the average body weight of a specified period. It was assessed for several periods during the entire experiment (so the total of food ingested was measured in continuous during several days to make the calculation). Significance was assessed using the […].

Compound	relative intake, period day 22-day 29	relative intake, period day 22-day 36
2′-fucosyllactose [2FL]	significantly increased	significantly increased
CC(=O)N[C@H]1[C@H](O[C@H]2[C@@H](O)[C@@H](CO)O[C@@H](O[C@H]3[C@H](O)[C@@H](O)C(O)O[C@@H]3CO)[C@@H]2O)O[C@H](CO)[C@@H](O[C@@H]2O[C@H](CO)[C@H](O)[C@H](O)[C@H]2O)[C@@H]1O (mixture of isomers) [LNnT, lacto-N-neotetraose]	significantly increased	significantly increased
